#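 Test compounds were applied to cells in 96-well plates for 48 hours at 5 doses. GI50 is the concentration that inhibits growth by half. TGI: concentration producing complete growth inhibition.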
# Experiments:
# Test in all cases: NCI tumour cell line growth inhibition, 48 h
# OVCAR-5 ovarian = system: OVCAR-5 ovarian
# RXF 393 renal = system: RXF 393 renal
# SK-MEL-2 melanoma = system: SK-MEL-2 melanoma
# T-47D breast = system: T-47D breast
# SK-MEL-5 melanoma = system: SK-MEL-5 melanoma
# A498 renal = system: A498 renal
# M14 melanoma = system: M14 melanoma
# UO-31 renal = system: UO-31 renal
# HS 578T breast = system: HS 578T breast
# NCI-H522 lung = system: NCI-H522 lung
# 786-0 renal = system: 786-0 renal
# CAKI-1 renal = system: CAKI-1 renal
# NCI-H23 lung = system: NCI-H23 lung
# LOX IMVI melanoma = system: LOX IMVI melanoma
# SF-268 CNS = system: SF-268 CNS
# A549 NSCLC = system: A549 NSCLC
# SF-539 CNS = system: SF-539 CNS
# UACC-257 melanoma = system: UACC-257 melanoma
# MDA-MB-435 = system: MDA-MB-435
# HT29 colon = system: HT29 colon
# NCI-H226 lung = system: NCI-H226 lung
# SN12C renal = system: SN12C renal
# SR leukemia = system: SR leukemia
# NCI/ADR-RES ovarian = system: NCI/ADR-RES ovarian
# CCRF-CEM leukemia = system: CCRF-CEM leukemia
# HCT-15 colon = system: HCT-15 colon
# OVCAR-8 ovarian = system: OVCAR-8 ovarian
# U251 CNS = system: U251 CNS
# ACHN renal = system: ACHN renal
# HCT-116 colon = system: HCT-116 colon
# HL-60(TB) leukemia = system: HL-60(TB) leukemia
# SF-295 CNS = system: SF-295 CNS
# OVCAR-3 ovarian = system: OVCAR-3 ovarian
# HCC-2998 colon = system: HCC-2998 colon
# K-562 leukemia = system: K-562 leukemia
# COLO 205 colon = system: COLO 205 colon
# HOP-62 NSCLC = system: HOP-62 NSCLC
# OVCAR-4 ovarian = system: OVCAR-4 ovarian
# DU-145 prostate = system: DU-145 prostate
# PC-3 prostate = system: PC-3 prostate
# TK-10 renal = system: TK-10 renal
# KM12 colon = system: KM12 colon
# MCF7 breast = system: MCF7 breast
# BT-549 breast = system: BT-549 breast
# NCI-H460 lung = system: NCI-H460 lung
# SK-OV-3 ovarian = system: SK-OV-3 ovarian
# SW-620 colon = system: SW-620 colon
# HOP-92 NSCLC = system: HOP-92 NSCLC
# IGROV1 ovarian = system: IGROV1 ovarian
# UACC-62 melanoma = system: UACC-62 melanoma
# SNB-75 CNS = system: SNB-75 CNS
# SK-MEL-28 melanoma = system: SK-MEL-28 melanoma
# MOLT-4 leukemia = system: MOLT-4 leukemia
# SNB-19 CNS = system: SNB-19 CNS
# EKVX NSCLC = system: EKVX NSCLC
# MDA-MB-231 breast = system: MDA-MB-231 breast
# RPMI-8226 leukemia = system: RPMI-8226 leukemia
# MALME-3M melanoma = system: MALME-3M melanoma
smiles,measurement,setting,value
CCOC(=O)c1ccc(Nc2c3c(nc4ccccc24)CCCC3)cc1,TGI,OVCAR-5 ovarian,> 100 µM
same,TGI,RXF 393 renal,> 100 µM
same,TGI,SK-MEL-2 melanoma,> 100 µM
same,TGI,T-47D breast,> 100 µM
same,TGI,SK-MEL-5 melanoma,> 100 µM
same,TGI,A498 renal,> 92.2 µM
same,TGI,M14 melanoma,> 100 µM
same,TGI,UO-31 renal,> 100 µM
same,TGI,HS 578T breast,> 100 µM
same,TGI,NCI-H522 lung,> 27.7 µM
same,TGI,786-0 renal,> 100 µM
same,TGI,CAKI-1 renal,> 100 µM
same,TGI,NCI-H23 lung,> 100 µM
same,TGI,LOX IMVI melanoma,> 100 µM
same,TGI,SF-268 CNS,> 100 µM
same,TGI,A549 NSCLC,> 100 µM
same,TGI,SF-539 CNS,> 100 µM
same,TGI,UACC-257 melanoma,> 100 µM
same,TGI,MDA-MB-435,> 100 µM
same,TGI,HT29 colon,> 100 µM
same,TGI,NCI-H226 lung,> 100 µM
same,TGI,SN12C renal,> 100 µM
same,TGI,SR leukemia,> 100 µM
same,TGI,NCI/ADR-RES ovarian,> 100 µM
same,TGI,CCRF-CEM leukemia,> 100 µM
same,TGI,HCT-15 colon,> 100 µM
same,TGI,OVCAR-8 ovarian,> 100 µM
same,TGI,U251 CNS,> 100 µM
same,TGI,ACHN renal,> 100 µM
same,TGI,HCT-116 colon,> 100 µM
same,TGI,HL-60(TB) leukemia,> 100 µM
same,TGI,SF-295 CNS,> 100 µM
same,TGI,OVCAR-3 ovarian,> 100 µM
same,TGI,HCC-2998 colon,> 100 µM
same,TGI,K-562 leukemia,> 100 µM
same,TGI,COLO 205 colon,> 100 µM
same,TGI,HOP-62 NSCLC,> 83.9 µM
same,TGI,OVCAR-4 ovarian,> 100 µM
same,TGI,DU-145 prostate,> 100 µM
same,TGI,PC-3 prostate,> 100 µM
same,TGI,TK-10 renal,> 100 µM
same,TGI,KM12 colon,> 100 µM
same,TGI,MCF7 breast,> 100 µM
same,TGI,BT-549 breast,> 100 µM
same,TGI,NCI-H460 lung,> 100 µM
same,TGI,SK-OV-3 ovarian,> 100 µM
same,TGI,SW-620 colon,> 100 µM
same,TGI,HOP-92 NSCLC,> 72.6 µM
same,TGI,IGROV1 ovarian,> 100 µM
same,TGI,UACC-62 melanoma,> 100 µM
same,TGI,SNB-75 CNS,> 54.8 µM
same,TGI,SK-MEL-28 melanoma,> 100 µM
same,TGI,MOLT-4 leukemia,> 100 µM
same,TGI,SNB-19 CNS,> 100 µM
same,TGI,EKVX NSCLC,> 100 µM
same,TGI,MDA-MB-231 breast,> 100 µM
same,TGI,RPMI-8226 leukemia,> 100 µM
COC(=O)c1c2c(c[n+]([O-])c1C)C(=O)C=CC2=O,GI50,OVCAR-5 ovarian,1.9 µM
same,TGI,OVCAR-5 ovarian,3.85 µM
same,GI50,SK-MEL-2 melanoma,2.08 µM
same,TGI,SK-MEL-2 melanoma,4.5 µM
same,GI50,T-47D breast,2.33 µM
same,TGI,T-47D breast,6.85 µM
same,GI50,SK-MEL-5 melanoma,1.74 µM
same,TGI,SK-MEL-5 melanoma,3.15 µM
same,GI50,A498 renal,13.1 µM
same,TGI,A498 renal,26.4 µM
same,GI50,M14 melanoma,1.87 µM
same,TGI,M14 melanoma,3.69 µM
same,GI50,UO-31 renal,1.52 µM
same,TGI,UO-31 renal,3.03 µM
same,GI50,HS 578T breast,2.17 µM
same,TGI,HS 578T breast,6.04 µM
same,GI50,MALME-3M melanoma,1.25 µM
same,TGI,MALME-3M melanoma,2.51 µM
same,GI50,NCI-H522 lung,1.72 µM
same,TGI,NCI-H522 lung,4.5 µM
same,GI50,786-0 renal,2.56 µM
same,TGI,786-0 renal,6.39 µM
same,GI50,CAKI-1 renal,1.7 µM
same,TGI,CAKI-1 renal,3.16 µM
same,GI50,NCI-H23 lung,1.88 µM
same,TGI,NCI-H23 lung,4.26 µM
same,GI50,LOX IMVI melanoma,1.96 µM
same,TGI,LOX IMVI melanoma,4.18 µM
same,GI50,SF-268 CNS,2.83 µM
same,TGI,SF-268 CNS,10.7 µM
same,GI50,A549 NSCLC,16.1 µM
same,TGI,A549 NSCLC,40.1 µM
same,GI50,SF-539 CNS,1.79 µM
same,TGI,SF-539 CNS,3.39 µM
same,GI50,UACC-257 melanoma,2.26 µM
same,TGI,UACC-257 melanoma,5.54 µM
same,GI50,MDA-MB-435,1.68 µM
same,TGI,MDA-MB-435,3.15 µM
same,GI50,HT29 colon,4.1 µM
same,TGI,HT29 colon,56.3 µM
same,GI50,NCI-H226 lung,2.12 µM
same,TGI,NCI-H226 lung,4.52 µM
same,GI50,SN12C renal,1.76 µM
same,TGI,SN12C renal,3.23 µM
same,GI50,SR leukemia,2.72 µM
same,TGI,SR leukemia,> 100 µM
same,GI50,NCI/ADR-RES ovarian,3.27 µM
same,TGI,NCI/ADR-RES ovarian,14.4 µM
same,GI50,CCRF-CEM leukemia,2.5 µM
same,TGI,CCRF-CEM leukemia,6.57 µM
same,GI50,HCT-15 colon,1.78 µM
same,TGI,HCT-15 colon,3.51 µM
same,GI50,OVCAR-8 ovarian,2.93 µM
same,TGI,OVCAR-8 ovarian,10.8 µM
same,GI50,U251 CNS,2.15 µM
same,TGI,U251 CNS,5.22 µM
same,GI50,ACHN renal,1.73 µM
same,TGI,ACHN renal,3.22 µM
same,GI50,HCT-116 colon,2.19 µM
same,TGI,HCT-116 colon,5.18 µM
same,GI50,HL-60(TB) leukemia,2.13 µM
same,TGI,HL-60(TB) leukemia,5.75 µM
same,GI50,SF-295 CNS,3.43 µM
same,TGI,SF-295 CNS,13.2 µM
same,GI50,OVCAR-3 ovarian,0.317 µM
same,TGI,OVCAR-3 ovarian,1.17 µM
same,GI50,HCC-2998 colon,4.25 µM
same,TGI,HCC-2998 colon,15.5 µM
same,GI50,K-562 leukemia,2.51 µM
same,TGI,K-562 leukemia,> 100 µM
same,GI50,COLO 205 colon,1.85 µM
same,TGI,COLO 205 colon,3.93 µM
same,GI50,HOP-62 NSCLC,2.6 µM
same,TGI,HOP-62 NSCLC,7.71 µM
same,GI50,OVCAR-4 ovarian,1.44 µM
same,TGI,OVCAR-4 ovarian,2.83 µM
same,GI50,DU-145 prostate,1.85 µM
same,TGI,DU-145 prostate,3.54 µM
same,GI50,PC-3 prostate,4.34 µM
same,TGI,PC-3 prostate,55.1 µM
same,GI50,TK-10 renal,2.99 µM
same,TGI,TK-10 renal,9.57 µM
same,GI50,KM12 colon,4.27 µM
same,TGI,KM12 colon,18.8 µM
same,GI50,MCF7 breast,1.65 µM
same,TGI,MCF7 breast,3.46 µM
same,GI50,BT-549 breast,1.78 µM
same,TGI,BT-549 breast,3.23 µM
same,GI50,NCI-H460 lung,12.8 µM
same,TGI,NCI-H460 lung,28 µM
same,GI50,SK-OV-3 ovarian,19.3 µM
same,TGI,SK-OV-3 ovarian,51.1 µM
same,GI50,SW-620 colon,2.08 µM
same,TGI,SW-620 colon,5.36 µM
same,GI50,HOP-92 NSCLC,2.84 µM
same,TGI,HOP-92 NSCLC,9.06 µM
same,GI50,IGROV1 ovarian,2.11 µM
same,TGI,IGROV1 ovarian,4.54 µM
same,GI50,UACC-62 melanoma,1.81 µM
same,TGI,UACC-62 melanoma,3.4 µM
same,GI50,SNB-75 CNS,1.72 µM
same,TGI,SNB-75 CNS,4.13 µM
same,GI50,SK-MEL-28 melanoma,2.14 µM
same,TGI,SK-MEL-28 melanoma,3.97 µM
same,GI50,MOLT-4 leukemia,2.43 µM
same,TGI,MOLT-4 leukemia,6.21 µM
same,GI50,SNB-19 CNS,3.02 µM
same,TGI,SNB-19 CNS,10.9 µM
same,GI50,EKVX NSCLC,1.83 µM
same,TGI,EKVX NSCLC,4.25 µM
same,GI50,MDA-MB-231 breast,2.01 µM
same,TGI,MDA-MB-231 breast,5.46 µM
same,GI50,RPMI-8226 leukemia,3.9 µM
same,TGI,RPMI-8226 leukemia,26.6 µM

# From PubChem BioAssay (NCI)
